According to patent US7973059B2, “Potassium channel inhibitors” (Merck Sharp & Dohme Corp., priority 2005, dated 2011):
pIC50: −log10 of the molar value.

Target: human Kv1.5 potassium channel alpha subunit (Homo sapiens, UniProt P22460)
Assay: High throughput Kv1.5 planar patch clamp assay (Kv1.5 HT-clamp, IonWorks HT)
Type: cell-based
Set-up: Kv1.5 HT-clamp % inhibition: dose or concentration left out as unconfirmed
Details: for pIC50: CHO cells stably expressing human Kv1.5, 27th depolarization to +40 mV in 5 Hz train
Description: The high throughput Kv1.5 planar patch clamp assay is a systematic primary screen. It confirms activity and provides a functional measure of the potency of agents that specifically affect Kv1.5 potassium channels. Kiss et al. (Assay and Drug Dev. Tech., 1(1-2):127-135, 2003) and Schroeder et al. (J. of Biomol. Screen., 8(1); 50-64, 2003) describe the use of this instrument for Kv1.5 as well as other voltage gated ion channels.
Chinese hamster ovary cells (CHO) stably expressing the human Kv1.5 potassium channel alpha subunit, cloned from human heart, are grown to 90-100% confluence in Ham's F12 medium supplemented with 10% FBS, 100 U/ml penicillin, 100 μg/ml streptomycin, 1000 μg/ml G-418 sulfate. Cells are subcultured by treatment with Versene, then suspended in phosphate-buffered saline (PBS) and centrifuged The cell pellet is re-suspended in PBS and the resulting suspension placed in the cell reservoir of the IonWorks™ HT instrument.
Electrophysiological recordings are performed with intracellular solution containing (mM): K-gluconate 100, KCl 40, MgCl2 3.2, EGTA 3, N-2-hydroxylethylpiperazine-N^1-2-ethanesulphonic acid (HEPES) 5, adjusted to pH 7.3. Amphotericin (Sigma) is prepared as 30 mg/ml stock solution and diluted to a final working concentration of 0.1 mg/ml in internal buffer solution. The external solution is Dulbecco's PBS (Invitrogen) and contains (mM): CaCl2 0.90, KCl 2.67, K3PO4 1.47, MgCl2 0.50, NaCl 138, Na3PO4 8.10 and has a pH of 7.4. All compounds are prepared as 10 mM stock solutions in DMSO. Compounds are diluted into external buffer, then transferred from the drug plate to the Patchplate during the experiment (final DMSO concentration <0.66% vol.).
Kv1.5 ionic currents are recorded at room temperature. Membrane currents are amplified (RMS ˜10 pA) and sampled at 10 kHz. Leak subtraction was performed in all experiments by applying a 160 ms hyperpolarizing (10 mV) pre-pulses 200 ms before the test pulses to measure leak conductance. The patch clamp stimulus protocol is as follows: • 1. Patchplate wells are loaded with 3.5 μL of external buffer. • 2. Planar micropipette hole resistances (Rp) is determined by applying a 10 mV, 160 ms potential difference across each hole (Hole test). • 3. Cells are pipetted into the Patchplate and form high resistance seals with the 1-2 μm holes at the bottom of each Patchplate well. A seal test scan is performed to determine how many of the Patchplate wells have cells that have formed seals. • 4. In order to gain electrical access to the cells, intracellular solution containing amphotericin is circulated for 4 minutes on the bottom side of the Patchplate. • 5. Pre-compound addition test pulse is applied to each well on the Patchplate. Protocol: Cells are voltage clamped at a membrane holding potential of −80 mV for 15 seconds. This is followed by application of a 5 Hz stimulus train (27×150 ms depolarizations to +40 mV). The membrane potential steps to +40 mV evoke outward (positive) ionic currents. • 6. Compound is added to each well of the Patchplate. Compounds are allowed to incubate for 5 minutes. • 7. Post-compound addition test pulse protocol is applied. Protocol: Cells are voltage clamped at a membrane holding potential of −80 mV for 15 seconds. This is followed by application of a 5 Hz stimulus train (27×150 ms depolarizations to +40 mV).
Data analysis is conducted off-line. Paired comparisons between pre-drug and post-drug additions are used to determine the inhibitory effect of each compound. % inhibition of the peak control current during the 27th depolarization to +40 mV (in the 5 Hz train) is plotted as a function of antagonist concentration. The concentrations of drug required to inhibit current by 50% (IC50) are determined by fitting of the Hill equation to the concentration response data: % of Control=100×(1+([Drug]/IC50)^p)^−1 […]

Chain of human Kv1.5 potassium channel alpha subunit (P22460 whole entry): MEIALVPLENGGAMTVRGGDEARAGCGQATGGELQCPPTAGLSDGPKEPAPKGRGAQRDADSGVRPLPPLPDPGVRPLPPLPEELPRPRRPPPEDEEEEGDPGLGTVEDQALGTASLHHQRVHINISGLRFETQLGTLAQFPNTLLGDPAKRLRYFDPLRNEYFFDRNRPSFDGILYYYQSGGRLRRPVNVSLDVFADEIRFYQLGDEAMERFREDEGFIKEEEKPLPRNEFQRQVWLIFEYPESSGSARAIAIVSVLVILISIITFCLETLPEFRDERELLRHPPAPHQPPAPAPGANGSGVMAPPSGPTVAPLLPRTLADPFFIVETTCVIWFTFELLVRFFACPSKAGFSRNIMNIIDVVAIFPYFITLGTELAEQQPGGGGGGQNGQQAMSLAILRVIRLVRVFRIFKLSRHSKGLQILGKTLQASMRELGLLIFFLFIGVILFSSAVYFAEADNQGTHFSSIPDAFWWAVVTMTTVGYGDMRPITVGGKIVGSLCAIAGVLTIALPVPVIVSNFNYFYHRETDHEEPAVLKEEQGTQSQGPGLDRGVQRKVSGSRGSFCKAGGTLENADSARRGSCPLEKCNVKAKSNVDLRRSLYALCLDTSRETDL

Row | pIC50 | other results | SMILES
1 | 6.37 | – | OC(c1cccnc1-c1ccccc1Cl)C(c1cccnc1)c1cccnc1 (racemic) [Example 4 Racemic, racemic 1-[2-(2-chlorophenyl)pyridin-3-yl]-2,2-dipyridin-3-ylethanol]
2 | 6.77 | – | OC(c1cccnc1-c1ccccc1Cl)C(c1cccnc1)c1cccnc1 (single isomer, unassigned) [Example 4 Enantiomer A, 1-[2-(2-chlorophenyl)pyridin-3-yl]-2,2-dipyridin-3-ylethanol]
3 | 6.96 | – | OC(c1cccnc1-c1cccc(Cl)c1Cl)C(c1cccnc1)c1cccnc1 (racemic) [Example 6 Racemic, racemic 1-[2-(2,3-dichlorophenyl)pyridin-3-yl]-2,2-dipyridin-3-ylethanol]
4 | 7.11 | – | OC(c1cccnc1-c1cc(Cl)ccc1Cl)C(c1cccnc1)c1cccnc1 (racemic) [Example 5 Racemic, racemic 1-[2-(2,5-dichlorophenyl)pyridin-3-yl]-2,2-dipyridin-3-ylethanol]
5 | 7.12 | – | OC(c1cccnc1-c1cc(Cl)ccc1Cl)C(c1cccnc1)c1cccnc1 (single isomer, unassigned) [Example 5 Enantiomer B, 1-[2-(2,5-dichlorophenyl)pyridin-3-yl]-2,2-dipyridin-3-ylethanol]
6 | 6.63 | – | OC(c1cccnc1-c1cccc(Cl)c1Cl)C(c1cccnc1)c1cccnc1 (single isomer, unassigned) [Example 6 Enantiomer B, 1-[2-(2,3-dichlorophenyl)pyridin-3-yl]-2,2-dipyridin-3-ylethanol]
7 | 6.54 | – | OC(c1cccnc1-c1cccc(C(F)(F)F)c1)C(c1cccnc1)c1cccnc1 (single isomer, unassigned) [Example 2 Enantiomer A, 2,2-dipyridin-3-yl-1-{2-[3-(trifluoromethyl)phenyl]pyridin-3-yl}ethanol]
8 | – | Kv1.5 HT-clamp % inhibition: 72% | OC(c1cccnc1-c1cc(Cl)cc(Cl)c1)C(c1cccnc1)c1cccnc1F (single isomer, unassigned) [Example 3 Isomer 1, Enantiomer B, 1-[2-(3,5-dichlorophenyl)pyridin-3-yl]-2-(2-fluoropyridin-3-yl)-2-pyridin-3-ylethanol]
9 | 7.02 | – | OC(c1cccnc1-c1cc(Cl)cc(Cl)c1)C(c1cccnc1)c1cccnc1F (single isomer, unassigned) [Example 3 Isomer 1, Enantiomer A, 1-[2-(3,5-dichlorophenyl)pyridin-3-yl]-2-(2-fluoropyridin-3-yl)-2-pyridin-3-ylethanol]
10 | 5.50 | – | OC(c1cccnc1-c1cc(Cl)ccc1Cl)C(c1cccnc1)c1cccnc1 (single isomer, unassigned) [Example 5 Enantiomer A, 1-[2-(2,5-dichlorophenyl)pyridin-3-yl]-2,2-dipyridin-3-ylethanol]
11 | – | inhibition at 10 µM (at 10000 nM): 89% | OC(c1cccnc1-c1cc(Cl)cc(Cl)c1)C(c1cccnc1)c1cccnc1F (single isomer, unassigned) [Example 3 Isomer 2, Enantiomer B, 1-[2-(3,5-dichlorophenyl)pyridin-3-yl]-2-(2-fluoropyridin-3-yl)-2-pyridin-3-ylethanol]
12 | 7.05 | – | O[C@@H](c1cccnc1-c1cc(Cl)cc(Cl)c1)C(c1cccnc1)c1cccnc1 [(R)-1-[2-(3,5-dichlorophenyl)pyridin-3-yl]-2,2-dipyridin-3-ylethanol]
13 | 5.28 | – | OC(c1cccnc1-c1cccc(Cl)c1Cl)C(c1cccnc1)c1cccnc1 (single isomer, unassigned) [Example 6 Enantiomer A, 1-[2-(2,3-dichlorophenyl)pyridin-3-yl]-2,2-dipyridin-3-ylethanol]
14 | 4.60 | – | OC(c1cccnc1-c1ccccc1Cl)C(c1cccnc1)c1cccnc1 (single isomer, unassigned) [Example 4 Enantiomer B, 1-[2-(2-chlorophenyl)pyridin-3-yl]-2,2-dipyridin-3-ylethanol]
15 | 5.53 | – | O[C@H](c1cccnc1-c1cc(Cl)cc(Cl)c1)C(c1cccnc1)c1cccnc1 [(S)-1-[2-(3,5-dichlorophenyl)pyridin-3-yl]-2,2-dipyridin-3-ylethanol]
16 | 5.09 | – | OC(c1cccnc1-c1cccc(C(F)(F)F)c1)C(c1cccnc1)c1cccnc1 (single isomer, unassigned) [Example 2 Enantiomer B, 2,2-dipyridin-3-yl-1-{2-[3-(trifluoromethyl)phenyl]pyridin-3-yl}ethanol]
17 | 6.58 | – | OC(c1cccnc1-c1cccc(C(F)(F)F)c1)C(c1cccnc1)c1cccnc1 (racemic) [Example 2 Racemic, racemic 2,2-dipyridin-3-yl-1-{2-[3-(trifluoromethyl)-phenyl]pyridin-3-yl}ethanol]
18 | 6.94 | – | OC(c1cccnc1-c1cc(Cl)cc(Cl)c1)C(c1cccnc1)c1cccnc1 (racemic) [Example 1 Racemic, racemic 1-[2-(3,5-dichlorophenyl)pyridin-3-yl]-2,2-dipyridin-3-ylethanol]
19 | 6.81 | – | OC(c1cccnc1-c1cc(Cl)cc(Cl)c1)C(c1cccnc1)c1cccnc1F (single isomer, unassigned) [Example 3 Isomer 2, Enantiomer A, 1-[2-(3,5-dichlorophenyl)pyridin-3-yl]-2-(2-fluoropyridin-3-yl)-2-pyridin-3-ylethanol]
